Results reported in patent US20230312510A1, “COMPOUNDS AND METHODS FOR TREATING NEURODEGENERATIVE DISEASES” (The McLean Hospital Corporation, priority 2020, published 2023).
≈ marks a conversion by molar mass, not a printed value. Where “and” joins values, the source holds several entries; their conditions need not be identical. Identical values can stand only once.

Assays:
[1] = test system: mouse embryonic ventral mesencephalic (mVM) primary neurons; test: Dopaminergic gene expression in mVM primary neurons with or without 6-OHDA; assay type: cell-based
Procedure: FIGS. 8A-8D show dopaminergic (DAergic) gene expressions in the absence or presence of 6-OHDA (20 μM) in mouse embryonic ventral mesencephalic (mVM) primary neurons derived from embryonic day 12.5 (E12.5).

N27-A cells [2] = test: Protection against MPP+-induced toxicity in N27-A cells (MTT, LDH); settings: 1 mM MPP+
[3] = test system: Nurr1-LBD and full-length Nurr1; test: Luciferase activity assay (Nurr1 transactivation) in MN9D cells; assay type: cell-based, murine
BV2 cells = test: LPS-induced TNFα mRNA expression in BV2 cells (real-time PCR); assay type: cell-based, mouse; settings: LPS 1 μg/ml, compound 1 μM
From the text: (§1) Besides the role as an activator of DAergic genes, Nurr1 is known as a repressor of inflammatory genes in astrocytes and microglia (See Saijo et al., Cell 2009, 137, 47-59).

[4] = test system: MPTP-induced PD model mice; test: Sub-chronic MPTP-induced mice model of PD
Procedure: (§2) Sub-chronic MPTP regimen (30 mg/kg/day, 5 days) was introduced.

full-length Nurr1 = biological target: T1, full-length Nurr1 (Homo sapiens, UniProt P43354); test: Luciferase activity assay (p4xNL3-Luc reporter) with full-length Nurr1 in SK-N-BE(2)C cells; assay type: cell-based
T1 construct: expressed in transfected cells; host or cells: SK-N-BE(2)C human neuroblastoma cells
T1 sequence (P43354 whole entry): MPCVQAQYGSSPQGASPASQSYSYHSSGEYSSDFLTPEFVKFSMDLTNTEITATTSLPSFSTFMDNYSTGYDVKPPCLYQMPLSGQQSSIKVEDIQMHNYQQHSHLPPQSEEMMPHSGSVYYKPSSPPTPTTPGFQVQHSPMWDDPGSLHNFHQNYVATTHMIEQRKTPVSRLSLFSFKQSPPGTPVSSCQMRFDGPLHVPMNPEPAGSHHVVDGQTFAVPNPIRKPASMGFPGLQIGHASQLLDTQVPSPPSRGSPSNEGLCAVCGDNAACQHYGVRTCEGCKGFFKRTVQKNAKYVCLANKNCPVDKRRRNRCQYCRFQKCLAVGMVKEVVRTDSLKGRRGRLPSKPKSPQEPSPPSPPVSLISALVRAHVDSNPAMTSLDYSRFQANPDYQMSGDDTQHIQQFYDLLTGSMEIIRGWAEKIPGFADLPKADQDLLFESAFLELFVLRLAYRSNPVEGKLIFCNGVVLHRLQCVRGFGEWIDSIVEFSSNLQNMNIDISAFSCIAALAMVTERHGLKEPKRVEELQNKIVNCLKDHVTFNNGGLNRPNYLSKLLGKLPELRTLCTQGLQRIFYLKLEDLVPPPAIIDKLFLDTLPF

MN9D cells [5] = test system: MN9D cells
Procedure: (§3) Cell viability and cytotoxicity were measured by MTT (3-(4,5-dimethylthiazol-2-yl)-2,5-diphenyltetrazolium bromide) reduction assay.
(§4) Cell viability and cytotoxicity were measured by lactate dehydrogenase (LDH) release assay.

HeLa cells = test: Starvation-induced autophagy in HeLa cells (Western blot of LC3B and p62); assay type: cell-based; settings: EBSS 0-4 hrs, BafA1 10 nM, CQ 20 μM, SPV-94 1 μM
Procedure: To limit basal autophagy, cells were incubated in fresh growth medium for 1 hr before starvation. Samples were analyzed by Western blot using autophagic flux markers LC3B and p62 (A) and its expression levels were quantified (10B and 10C).

[6] = test system: MPTP-induced PD model mice; settings: mouse, in vivo
Procedure: as §2

[7] = test system: Nurr1-LBD and full-length Nurr1; test: Luciferase activity assay (Nurr1 transactivation) in N27-A cells; assay type: cell-based, murine
[8] = pH 7.4
[9] = Brain permeability (plasma and brain levels by LC-MS/MS) after i.v. injection; assay type: in vivo; settings: rats, 5 mg/kg i.v., 5 min and 1 hr
Procedure: Rats (n=6) were killed at 5 min and 1 hr after i.v. administration, and brain and plasma were collected for blood-brain barrier (BBB) penetration analysis. The concentrations of each compound in plasma (A) and brain (B) were determined by LC-MS/MS (liquid chromatography-tandem mass spectrometry). The brain/plasma ratio (B/P ratio) (C) is calculated at each time point.

N27-A cells [10] = test: Starvation-induced autophagy and Nurr1 expression in N27-A cells with or without MPP+; assay type: cell-based
Procedure: LC3B, p62 and Nurr1 expression levels determined by Western blot (D) were quantified.
Next, autophagy regulation was assessed in a dopaminergic cell line N27-A in the absence or presence of MPP^+ (1 mM). […] Furthermore, it was observed that MPP disrupted autophagy showing accumulated LC3B-II and remained p62 at the late-stage, which corresponds to the previous studies (See Lim et al., Autophagy 2011, 7, 51-60; Hung et al., PLoS ONE 2014, 9, e91074; Park et al., J Biol Chem 2016, 291, 3531-3540).
Referring to FIGS. 10D-10G, N27-A cells were treated with vehicle or MPP+ (1 mM) for 24 hrs and then changed with fresh growth medium with or without MPP+ 1 hr before starvation. […] To induce autophagy, N27-A cells were incubated in EBSS for 0-4 hrs, in the absence or presence of MPP+. Samples were analyzed by Western blot using autophagic flux markers LC3B and p62 (D) and its expression levels were quantified (10E and 10F). […] (10G) Nurr1 expression level changes were also analyzed and quantified.

[11] = test system: mouse bone marrow-derived primary macrophages (mBMMs); test: LPS- or poly(I:C)-induced pro-inflammatory gene expression in mBMMs; assay type: cell-based; settings: CQ 10 μM, SPV-94 1 μM
From the text: as §1

Nurr1 = biological target: T2, Nurr1 (Homo sapiens, UniProt P43354); test: Relative luciferase activity versus previously reported compounds in SK-N-BE(2)C cells; assay type: cell-based; settings: compared with control, AQ, CQ, SM-485, ATH-393, SR-175
T2 construct: expressed in transfected cells; host or cells: SK-N-BE(2)C cells
T2 sequence (P43354 whole entry): as above
From the text: Each bar indicates Mean±SEM from three independent experiments.

MN9D cells [12] = test: Protection against MPP+-induced toxicity in MN9D cells (MTT reduction, LDH release)
Procedure: as §3, §4

Nurr1-LBD [13] = biological target: T3, Nurr1-LBD (Homo sapiens, UniProt P43354); test: Luciferase activity assay (p4xNL3-Luc reporter) with Nurr1-LBD in SK-N-BE(2)C cells; assay type: cell-based; design: expressed in transfected cells; host or cells: SK-N-BE(2)C human neuroblastoma cells
T3 sequence (P43354 360-595 limits assumed): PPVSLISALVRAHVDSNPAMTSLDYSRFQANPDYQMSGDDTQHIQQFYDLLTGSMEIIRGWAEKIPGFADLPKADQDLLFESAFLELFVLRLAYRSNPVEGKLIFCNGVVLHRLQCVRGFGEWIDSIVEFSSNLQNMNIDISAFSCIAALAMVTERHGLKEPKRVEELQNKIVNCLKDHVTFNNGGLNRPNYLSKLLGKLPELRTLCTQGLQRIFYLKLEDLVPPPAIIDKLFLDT

Nurr1-LBD [14] = biological target: T3, Nurr1-LBD; test: Radioligand competition binding assay using [3H]-CQ
[15] = L-DOPA 50, CQ 40, SPV-94 5 mg/kg/day

CCN1CCN(c2cc(NCCNc3ccnc4cc(Cl)ccc34)nc(N3CCN(CC)CC3)n2)CC1 [SPV-94]
DAergic gene expressions downregulated by 6-OHDA toxicity ([1]; 6-OHDA 20 μM, CQ 20 μM, SPV-94 0.5 μM): significant recovery of downregulated DAergic gene expressions
mRNA expression levels of DAergic genes (TH, DAT, AADC, VMAT2, c-Ret, Pitx3) ([1]; CQ 20 μM, SPV-94 0.5 μM, vs vehicle): significantly upregulated mRNA expression levels of DAergic genes
effects on DAergic gene expression in Nurr1 knockdown condition ([1]; Nurr1 KD): disappeared
cell viability, MTT assay (N27-A cells [2]): dose-dependently increased cell viability in MTT assay
EC50 [3]: ~0.05 µM
transcriptional activities of Nurr1-LBD and full-length Nurr1 [3]: enhanced transcriptional activities
suppression of TNFα expression compared to LPS only (BV2 cells): 20.67%
olfactory discrimination test (olfaction), sub-acute stage [4]: significantly recovered olfaction
body weight recovery [4, 15]: restored it even earlier, after day 6
cylinder test, rearing numbers, sub-chronic treatment [4, 15]: recovered rearing numbers in the cylinder test
pole test, time to traverse, sub-chronic treatment [4, 15]: reduced time to traverse on a pole
rotarod latency to fall, sub-chronic treatment [4, 15]: significantly improved motor deficits on the rotarod latency to fall
Nurr1-immunoreactive cells ([4]; SNpc): significantly retained Nurr1-immunoreactive cells
GFAP immunoreactivity, activated astrocytes ([4]; STR): reduced number of activated astrocytes
Iba-1+ microglia numbers ([4]; STR and SNpc): significantly reduced numbers of Iba-1+ microglia
TH+ DAergic neurons (counting and densitometry) ([4]; STR, SNpc and OB): significantly restored DAergic neurons
olfactory discrimination test (olfaction), chronic treatment ([4]; day 14): significantly recovered olfaction
rotarod latency to fall, chronic treatment ([4]; day 15): improved latency to fall on the rotarod on day 15
concentration of maximal efficiency, full-length Nurr1 transcriptional activity (full-length Nurr1; SK-N-BE(2)C cells): 20 µM
EC50 (full-length Nurr1; SK-N-BE(2)C cells, read-out: EC50, transcriptional activity of full-length Nurr1): ~10 µM and 10 µM
fold lower concentration of maximal efficiency than CQ, full-length Nurr1 (full-length Nurr1; versus CQ): 5 fold
times lower concentration of maximal efficiency than CQ, protection from MPP+-induced cytotoxicity (MN9D cells [5]): 10 times
autophagy process (LC3B, p62) (HeLa cells): initiated and also terminated autophagy process resulting in significant p62 degradation
dyskinesia in the abnormal involuntary movements (AIMs) test [6]: did not trigger dyskinesia
EC50 [7]: ~0.05 µM
transcriptional activities of Nurr1-LBD and full-length Nurr1 [7]: enhanced transcriptional activities
solubility [8]: 504.88 µM (≈ 265 µg/mL)
penetration into the brain (brain and plasma concentration, B/P ratio) [9]: penetrated into the brain slower than CQ and consistently maintained its level
basal Nurr1 expression level compared to VEH (N27-A cells [10]; CQ 20 μM, SPV-94 1 μM): significantly higher
MPP+-induced autophagy dysregulation (p62 degradation) (N27-A cells [10]; MPP+ 1 mM): seemed to protect N27-A cells from MPP+-induced autophagy dysregulation leading to successful p62 degradation
Nurr1 expression against MPP+ (N27-A cells [10]; MPP+ 1 mM, SPV-94 1 μM): maintained Nurr1 expression against MPP+
autophagy termination (LC3B, p62) (N27-A cells [10]; starvation 0-4 hrs, BafA1 10 nM, CQ 20 μM, SPV-94 1 μM): autophagy was successfully terminated
LPS- or poly(I:C)-induced pro-inflammatory gene expressions (TNFα, iNOS, IL-1β, IL-6) [11]: dramatically suppressed all four pro-inflammatory gene expressions
relative luciferase activity (transactivity) among selected candidates (Nurr1): markedly highest transactivity among the selected candidates
cell viability, MTT reduction assay (MN9D cells [12]; 500 μM MPP+): dose-dependently increased cell viability
protective effect against MPP+-induced toxicity under Nurr1 overexpression (OE) (MN9D cells [12]; CQ 100 μM, SPV-94 1 μM, vs Mock): potentiated protective effects
concentration of maximal efficiency, Nurr1-LBD transcriptional activity (Nurr1-LBD [13]; SK-N-BE(2)C cells): 20 µM
EC50 (Nurr1-LBD [13]; SK-N-BE(2)C cells, read-out: EC50, transcriptional activity of Nurr1-LBD): ~10 µM and 10 µM
fold lower concentration of maximal efficiency than CQ, Nurr1-LBD (Nurr1-LBD [13]; versus CQ): 5 fold
Ki (Nurr1-LBD [14]): 0.0111 µM
IC50 (Nurr1-LBD [14]; 1,000 nM [3H]-CQ, 0.2 μM Nurr1-LBD, estimated, read-out: half maximal inhibitory concentration (IC50), competition with [3H]-CQ for binding to Nurr1-LBD): 0.05 µM
times higher affinity to Nurr1-LBD than CQ, based on IC50s (Nurr1-LBD [14]; versus CQ): 20 times
